Read-outs that look alike come from different tables or passages of the source.
Tests used:
Format in all cases: in vivo
[1] = system: Myzus persicae; assay: Green peach aphid (Myzus persicae) systemic test, artificial diet in 96-well microtiter plates; conditions: 72 h, read-out: mortality in comparison with untreated controls
Experimental: If not otherwise specified, the test solutions were prepared as follow:
The active compound was dissolved at the desired concentration in a mixture of 1:1 (vol:vol) distilled water:acetone. The test solution was prepared on the day of use.
B.1 Green Peach Aphid (Myzus persicae)
For evaluating control of green peach aphid (Myzus persicae) through systemic means, the test unit consisted of 96-well-microtiter plates containing liquid artificial diet under an artificial mem brane.
The compounds were formulated using a solution containing 75% v/v water and 25% v/v DMSO. Different concentrations of formulated compounds were pipetted into the aphid diet, using a custom built pipetter, at two replications.
After application, 5-8 adult aphids were placed on the artificial membrane inside the microtiter plate wells. The aphids were then allowed to suck on the treated aphid diet and incubated at about 23±1° C. and about 50±5% relative humidity for 3 days. Aphid mortality and fecundity was then visually assessed.

[2] = system: Heliothis virescens; assay: Tobacco budworm (Heliothis virescens) egg/larval test on insect diet in 96-well microtiter plates; conditions: 120 h, read-out: mortality in comparison with untreated controls
Experimental: B.2 Tobacco Budworm (Heliothis virescens)
For evaluating control of tobacco budworm (Heliothis virescens), the test unit consisted of 96-well-microtiter plates containing an insect diet and 15-25 H. virescens eggs.
The compounds were formulated using a solution containing 75% v/v water and 25% v/v DMSO. Different concentrations of formulated compounds were sprayed onto the insect diet at 10 μl, using a custom-built micro atomizer, at two replications.
After application, microtiter plates were incubated at about 28±1° C. and about 80±5% relative humidity for 5 days. Egg and larval mortality was then visually assessed.

[3] = system: Anthonomus grandis; assay: Boll weevil (Anthonomus grandis) egg/larval test on insect diet in 96-well microtiter plates; conditions: 120 h, read-out: mortality in comparison with untreated controls
Experimental: B.3 Boll Weevil (Anthonomus grandis)
For evaluating control of boll weevil (Anthonomus grandis), the test unit consisted of 96-well-microtiter plates containing an insect diet and 5-10 A. grandis eggs.
The compounds were formulated using a solution containing 75% v/v water and 25% v/v DMSO. Different concentrations of formulated compounds were sprayed onto the insect diet at 5 μl, using a custom-built micro atomizer, at two replications.
After application, microtiter plates were incubated at about 25±1° C. and about 75±5% relative humidity for 5 days. Egg and larval mortality was then visually assessed.

[4] = system: Aedes aegypti; assay: whole plant or invertebrate; conditions: 48 h, larval mortality, 2 days, read-out: mortality in comparison with untreated controls
Experimental: B.5 Yellow Fever Mosquito (Aedes aegypti)
For evaluating control of yellow fever mosquito (Aedes aegypti) the test unit consisted of 96-well-microtiter plates containing 200 μl of tap water per well and 5-15 freshly hatched A. aegypti larvae.
The active compounds were formulated using a solution containing 75% (v/v) water and 25% (v/v) DMSO. Different concentrations of formulated compounds or mixtures were sprayed onto the insect diet at 2.5 μl, using a custom-built micro atomizer, at two replications.
After application, microtiter plates were incubated at 28±1° C., 80±5% RH for 2 days. Larval mortality was then visually assessed.

[5] = system: Spodoptera eridania; assay: Southern armyworm (Spodoptera eridania), 2nd instar larvae, foliar spray on lima bean plants; conditions: 96 h, 2nd instar larvae on sprayed lima bean, 4 days after treatment, read-out: mortality in comparison with untreated controls
Experimental: B.4. Southern Armyworm (Spodoptera eridania), 2nd Instar Larvae
The active compounds were formulated by a Tecan liquid handler in 100% cyclohexanone as a 10,000-ppm solution supplied in tubes. The 10,000-ppm solution was serially diluted in 100% cyclohexanone to make interim solutions. These served as stock solutions for which final dilutions were made by the Tecan in 50% acetone:50% water (v/v) into 10 or 20 ml glass vials. A non-ionic surfactant (Kinetic®) was included in the solution at a volume of 0.01% (v/v). The vials were then inserted into an automated electrostatic sprayer equipped with an atomizing nozzle for application to plants/insects. Lima bean plants (variety Sieva) were grown 2 plants to a pot and selected for treatment at the 1st true leaf stage. Test solutions were sprayed onto the foliage by an auto-mated electrostatic plant sprayer equipped with an atomizing spray nozzle. The plants were dried in the sprayer fume hood and then removed from the sprayer. Each pot was placed into perforated plastic bags with a zip closure. Ten to 11 armyworm larvae were placed into the bag and the bags zipped closed. Test plants were maintained in a growth room at about 25° C. and about 20-40% relative humidity for 4 days, avoiding direct exposure to fluorescent light (14:10 light:dark photoperiod) to prevent trapping of heat inside the bags. Mortality and reduced feeding were assessed 4 days after treatment, compared to untreated control plants.

[6] = 2500 ppm, adult aphids on treated artificial diet, 3 days
[7] = 2500 ppm, egg and larval mortality, 5 days

CC(NC(=O)c1cc(C(F)(F)F)cc(C(F)(F)F)c1)c1nccnc1C(N)=NO (stereo not shown) [I-3, N-[1-[3-[N′-hydroxycarbamimidoyl]pyrazin-2-yl]ethyl]-3,5-bis(trifluoromethyl)benzamide]
≥ 75%: mortality at 2500 ppm [1, 6] | mortality at 2500 ppm [2, 7] | mortality at 2500 ppm [3, 7] | mortality at 2500 ppm [4]

CON=C(N)c1nccnc1C(C)NC(=O)c1cc(C(F)(F)F)cc(C(F)(F)F)c1 (stereo not shown) [I-5, N-[1-[3-[N′-methoxycarbamimidoyl]pyrazin-2-yl]ethyl]-3,5-bis(trifluoromethyl)benzamide]
≥ 75%: mortality at 2500 ppm [1, 6] | mortality at 2500 ppm [2, 7] | mortality at 2500 ppm [3, 7] | mortality at 300 ppm [5] | mortality at 2500 ppm [4]

CON=C(C)c1nccnc1C(C)N(CC1CC1)C(=O)c1cc(C(F)(F)F)cc(C2(C#N)CC2)c1 (stereo not shown) [I-9, 3-(1-cyanocyclopropyl)-N-(cyclopropylmethyl)-N-[1-[3-(N-methoxy-C-methyl-carbonimidoyl)pyrazin-2-yl]ethyl]-5-(trifluoromethyl)benzamide]
≥ 75%: mortality at 2500 ppm [1, 6] | mortality at 300 ppm [5] | mortality at 2500 ppm [4]

CON=C(C)c1nccnc1C(C)N(CC1CC1)C(=O)c1cc(Cl)cc(S(=O)(=O)c2ccc(F)cc2)c1 (stereo not shown) [I-17, 3-chloro-N-(cyclopropylmethyl)-5-(4-fluorophenyl)sulfonyl-N-[1-[3-(N-methoxy-C-methyl-carbonimidoyl)pyrazin-2-yl]ethyl]benzamide]
≥ 75%: mortality at 2500 ppm [3, 7] | mortality at 300 ppm [5] | mortality at 2500 ppm [4]

CCN(C)C(=NO)c1nccnc1C(C)NC(=O)c1cc(C(F)(F)F)cc(C(F)(F)F)c1 (stereo not shown) [I-170, N-[1-[3-(N-ethyl-N′-hydroxy-N-methyl-carbamimidoyl)pyrazin-2-yl]ethyl]-3,5-bis(trifluoromethyl)benzamide]
≥ 75%: mortality at 2500 ppm [1] | mortality at 2500 ppm [2] | mortality at 2500 ppm [3] | mortality at 2500 ppm [4]

Reference: patent US20250107528A1, “PYRAZINE COMPOUNDS FOR THE CONTROL OF INVERTEBRATE PESTS” (BASF SE, priority 2021, published 2025)
